Experimental data reported in publication PMC9706565, “Covalently Conjugated NOD2/TLR7 Agonists Are Potent and Versatile Immune Potentiators” (Journal of Medicinal Chemistry, 2022).
≈ marks a conversion by molar mass, not a printed value. Read-outs that look alike come from different tables or passages of the source.

How the values were obtained:
[1] = Kinetic solubility measurement; type: physicochemical
Experimental: The content of DMSO in all solutions was fixed to 2% by adding the respective amounts of DMSO. The column used was Waters Acquity UPLC BEH C18 (1.7 μm, 2.1 × 50 mm^2). […] The column was thermostated at 40 °C.

NIH/OlaHsd mice = experiment: Mouse immunization with OVA, OVA-specific serum antibodies (ELISA); type: in vivo; settings: s.c. days 0, 21, 42; OVA 10 μg + compound 50 μg; 7 days after last dose
Experimental: NIH/OlaHsd inbred mice were raised at the Institute of Immunology, Croatia. All mice used were females, from 2.0 to 2.5 months old. During the experimental period, the mice were housed in the Animal Facility of the Institute of Immunology, with food and water provided ad libitum.
Sex-matched NIH/OlaHsd mice (five per group) were immunized subcutaneously into the tail base with OVA (10 μg; Serva, Germany) alone or plus the compounds (50 μg) on days 0, 21, and 42. The injection volume in all of the experimental groups was 0.1 mL per mouse. On the seventh day after the second booster dose, the mice were anesthetized with i.p. application of ketamine/xylazine (25 mg/kg each) prior to blood collection from the axillary plexus. Individual sera from each animal were decomplemented at 56 °C for 35 min and then stored at −20 °C until tested.
The levels of the OVA-specific total IgG, IgG1, and IgG2a in mice sera were determined by ELISA. Briefly, high-binding ELISA plates (Costar) were coated with a 15 μg/mL solution of OVA (Serva, Germany) in carbonate buffer (pH 9.6). Nonspecific antibody binding was blocked by 0.5% w/v bovine serum albumin in PBS-T (0.05% [v/v] Tween 20 in PBS) for 2 h at 37 °C. After washing, five serial dilutions of mice sera and standard preparations were added in duplicates. Plates were incubated overnight at room temperature, washed, and analyzed for OVA-specific IgG levels by incubation with HRP-conjugated goat anti-mouse IgG (2 h at 37 °C; Bio-Rad Laboratories), and then after washing, with 0.6 mg/mL o-phenylenediaminedihydrochloride solution in citrate-phosphate buffer, pH 5.0, with 0.5 μL 30% H2O2/mL for 30 min at room temperature in the dark. The enzymatic reaction was stopped with 12.5% H2SO4, and absorbance at 492 nm was measured using a microplate reader (Thermo Fisher Scientific, Waltham, MA).
For the determination of OVA-specific IgG1 and IgG2a, the plates were incubated with biotin-conjugated rat anti-mouse IgG1 or IgG2a (2 h at 37 °C; PharMingen, Becton Dickinson) and subsequently with streptavidin-peroxidase (Pharmingen) for 2 h at 37 °C. After washing, the substrate solution was added and incubated for 30 min at room temperature in the dark, as described above. The enzymatic reaction was stopped with 12.5% H2SO4 and absorbance at 492 nm was measured using a microplate reader. The relative quantities of antibodies were determined by parallel line assays using appropriate standard preparations of anti-OVA IgG, anti-OVA IgG1, and anti-OVA IgG2a antibodies with voluntarily assigned 20.000 AU/mL, 400.000 AU/mL, and 5000 AU/mL, respectively.[65] Statistical significance was determined with one-way ANOVA with subsequent Dunnett’s multiple comparisons test.

K562 cells = experiment: PBMC cytotoxicity against K562 cancer cells; type: cell-based
Experimental: (§1) K562 cells are a chronic myelogenous leukemia cell line (Cat. code: CCL-243; ATCC, Manassas, VA)[60] and MEC1 cells are a B-chronic lymphocytic leukemia cell line (Cat. code: ACC 497; DSMZ GmbH, Braunschweig, Germany).[61]
(§2) The PBMC cytotoxicity assays using K562 and MEC1 cells were performed as described previously, with some modifications.[64] PBMCs were seeded (4 × 10^5 cells/well) in duplicate in 96-well U-bottom plates and treated with the compounds (1 nM–1 μM) or vehicle (0.1% DMSO) for 18 h. […] Cells that were positive for both CFSE and Sytox blue were defined as dead K562 and MEC1 cells. The gating strategy is described in Figure S4. PBMCs alone and CFSE-labeled cancer cells alone were also treated with the compounds at the same concentrations and stained with Sytox blue to exclude any direct cytotoxicity of the compounds toward the PBMCs and cancer cells. Statistical significance was determined with one-way ANOVA with subsequent Bonferroni’s multiple comparisons test.

human PBMCs [2] = experiment: Cytokine release from peripheral blood mononuclear cells; type: cell-based; settings: 1 μM, 18 h
Experimental: Human PBMCs from healthy and consenting donors were isolated from heparinized blood by density gradient centrifugation using Ficoll-Paque (Pharmacia, Sweden).
Peripheral blood mononuclear cells were seeded (1 × 10^6 cells/mL) in 24-well plates in 500 μL of growth medium and treated with the compounds (1 μM), lipopolysaccharide (LPS; 1 μg/mL), or the corresponding vehicle (0.1% DMSO). Cell-free supernatants were collected after 18 h of incubation (37 °C, 5% CO2) and stored at −80 °C until tested. Cytokine production was determined with BD Cytometric Bead Array human inflammatory cytokines kit (BD Bioscience) on an Attune NxT flow cytometer (Thermo Fisher Scientific, Waltham, MA). Standard curves were generated using recombinant cytokines contained in the kit. The data were analyzed using the FlowJo (Tree Star, Inc., Ashland, OR) and Prism (GraphPad, San Diego, CA) software. Statistical significance was determined with one-way ANOVA with subsequent Bonferroni’s multiple comparisons test.

NOD2 = target: T1, NOD2 (Homo sapiens, UniProt Q9HC29); experiment: NF-κB transcriptional activity (SEAP reporter) in HEK-Blue NOD2 cells; type: cell-based; settings: 18 h
T1 construct: host or cells: HEK-Blue NOD2 (HEK293-derived)
T1 sequence (Q9HC29 whole entry): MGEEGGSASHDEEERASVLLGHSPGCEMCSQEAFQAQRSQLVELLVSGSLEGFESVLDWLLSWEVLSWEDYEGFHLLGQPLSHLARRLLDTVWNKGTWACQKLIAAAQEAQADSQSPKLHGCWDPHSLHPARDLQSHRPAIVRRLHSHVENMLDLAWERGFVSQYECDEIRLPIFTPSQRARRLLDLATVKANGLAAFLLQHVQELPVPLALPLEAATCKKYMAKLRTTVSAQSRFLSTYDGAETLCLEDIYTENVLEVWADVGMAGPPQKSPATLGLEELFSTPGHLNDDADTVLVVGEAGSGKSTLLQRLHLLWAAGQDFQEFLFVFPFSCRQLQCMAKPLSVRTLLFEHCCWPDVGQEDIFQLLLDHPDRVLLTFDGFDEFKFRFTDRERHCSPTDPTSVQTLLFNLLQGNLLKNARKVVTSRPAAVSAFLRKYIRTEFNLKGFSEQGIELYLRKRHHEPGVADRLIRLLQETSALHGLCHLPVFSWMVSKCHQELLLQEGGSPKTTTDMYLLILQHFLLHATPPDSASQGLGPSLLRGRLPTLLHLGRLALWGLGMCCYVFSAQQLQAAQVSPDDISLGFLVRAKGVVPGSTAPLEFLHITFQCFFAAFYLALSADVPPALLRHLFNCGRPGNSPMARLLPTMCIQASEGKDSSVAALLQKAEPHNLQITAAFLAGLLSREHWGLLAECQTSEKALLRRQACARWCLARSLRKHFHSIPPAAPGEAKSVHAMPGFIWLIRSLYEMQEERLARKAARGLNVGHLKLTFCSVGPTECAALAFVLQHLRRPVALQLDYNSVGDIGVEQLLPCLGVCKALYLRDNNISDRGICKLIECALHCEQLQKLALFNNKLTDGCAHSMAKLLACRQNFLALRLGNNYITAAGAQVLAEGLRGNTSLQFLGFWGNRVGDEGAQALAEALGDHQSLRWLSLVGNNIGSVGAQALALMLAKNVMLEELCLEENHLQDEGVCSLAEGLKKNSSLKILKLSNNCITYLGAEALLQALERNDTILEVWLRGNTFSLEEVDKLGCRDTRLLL
Description: HEK-Blue NOD1 (Cat. code: hkb-hnod1), NOD2 (Cat. code: hkb-hnod2), and TLR7 (Cat. code: hkb-htlr7) cell lines (Invivogen, San Diego, CA) are derived from HEK293 cells by co-transfection of the hNOD1, hNOD2, or hTLR7 genes, respectively, and a nuclear factor-κB (NF-κB)-inducible secreted embryonic alkaline phosphatase (SEAP) reporter gene. Following activation of the respective receptors, the resulting NF-κB induces the production of SEAP, the levels of which can be quantified colorimetrically. […] All of the subsequent passages were cultured in medium additionally supplemented with 100 μg/mL Zeocin (Invivogen) and 30 μg/mL Blasticidin (Invivogen) for HEK-Blue NOD1 and NOD2 cells, or with 100 μg/mL Zeocin (Invivogen) and 10 μg/mL Blasticidin (Invivogen) for HEK-Blue TLR7 cells.
After 18 h of incubation (37 °C, 5% CO2), SEAP activity was determined spectrophotometrically as absorbance at 630 nm (BioTek Synergy microplate reader; Winooski, VT). EC50 values were calculated using the Prism software (version 9; GraphPad Software, CA).

MEC1 cells = experiment: PBMC cytotoxicity against MEC1 cancer cells; type: cell-based, human; settings: PBMCs stimulated 18 h, 1 μM; 4 h coincubation, effector:target 40:1
Experimental: as §1, §2

human PBMCs [3] = type: cell-based

CCCCOc1nc(N)c2nc(O)n(Cc3ccc(C(=O)NCCOCCNC(=O)CC[C@@H](NC(=O)[C@@H](NC(=O)CNC(=O)/C=C/c4ccc(O)c(OC)c4)C(C)C)C(=O)OCC)cc3)c2n1 [Compound 4, Ethyl N5-(2-(2-(4-((6-amino-2-butoxy-8-hydroxy-9H-purin-9-yl)methyl)benzamido)ethoxy)ethyl)-N2-((E)-3-(4-hydroxy-3-methoxyphenyl)acryloyl)glycyl-L-valyl-D-glutaminate]
fold higher solubility of 4 than 3 ([1]; kinetic solubility, Table S2): approximately 2 fold | solubility at 2 h ([1]; phosphate-buffered saline, aqueous buffer, kinetic from dmso stock, kinetic, PBS pH 7.4, 2% DMSO, 2 h room temperature): 58.2 µM (≈ 54.3 µg/mL) | IgG2a/IgG1 ratio (Th1/Th2 polarization) (NIH/OlaHsd mice): trend toward increased IgG2a/IgG1 ratios | OVA-specific IgG1 titers (NIH/OlaHsd mice): increased the titers | OVA-specific IgG2a titers (NIH/OlaHsd mice): increased the titers | serum OVA-specific IgG titers (NIH/OlaHsd mice): significantly higher | cytolytic activity of PBMCs against K562 cells (K562 cells; PBMCs stimulated 18 h, 1 μM, 4 h coincubation, effector:target 40:1): significantly enhanced | lowest concentration with significant effect on PBMC cytotoxicity (K562 cells; tested 1 nM-1 μM, cancer cell line not specified (K562 or MEC1, Figure S5)): 10 nM | IL12p70 secretion (human PBMCs [2]): induced secretion of IL12p70 | production of IL-1β, IL-6, IL-8, IL-10 and TNF (human PBMCs [2]): considerably stronger effects compared to 3 | NOD2 activation at the highest concentration tested (NOD2; 10 μM): activated NOD2 only to a minor extent | EC50 (NOD2; eight concentrations 1 nM to 10 μM, NA, not active): > 10 µM | cytolytic activity of PBMCs against MEC1 cells (MEC1 cells): significantly enhanced | Genes in KEGG pathway, 4-enriched (human PBMCs [3]; Chemokine signaling pathway (total 182)): 40 | Genes in KEGG pathway, 4-enriched (human PBMCs [3]; Hematopoietic cell lineage (total 97)): 31 | Genes in KEGG pathway, 4-enriched (human PBMCs [3]; Influenza A (total 182)): 33 | Genes in KEGG pathway, 4-enriched (human PBMCs [3]; NF-kappa B signaling pathway (total 107)): 25 | transcription of IFN-γ and both IL-12 subunits (IL12A, IL12B) (human PBMCs [3]; PBMCs, 1 μM, 18 h): strongly upregulated | transcription of IL-17A, IL-17F, IL-22 and IL-26 (human PBMCs [3]; PBMCs, 1 μM, 18 h): induced transcription | transcription of Th2-associated genes (IL-4, IL-5, IL-13, STAT6, GATA3) (human PBMCs [3]; PBMCs, 1 μM, 18 h): remained unchanged | number of significantly downregulated genes (human PBMCs [3]; PBMCs, three donors, 1 μM, 18 h, FDR <0.05, fold-change <0.5): 877 | number of significantly upregulated genes (human PBMCs [3]; PBMCs, three donors, 1 μM, 18 h, […]): 962 | Genes in KEGG pathway, 4-enriched (human PBMCs [3]; Pathways in cancer (total 395)): 56 | Genes in KEGG pathway, 4-enriched (human PBMCs [3]; Phagosome (total 168)): 33 | Genes in KEGG pathway, 4-enriched (human PBMCs [3]; Rheumatoid arthritis (total 99)): 25 | Genes in KEGG pathway, 4-enriched (human PBMCs [3]; TNF signaling pathway (total 115)): 28 | Genes in KEGG pathway, 4-enriched (human PBMCs [3]; Transcriptional misregulation in cancer (total 204)): 37
